US20090253709A1 (NATIONAL DEFENSE MEDICAL CENTER, priority 2008, published 2009)

Legend:
Format in all cases: cell-based
[1] = tested on: H1299; experiment: MTT assay in H1299 cells; settings: for cytotoxicity to H1299 cancer cells compared with mitoxantrone: MTT assay
Method in brief: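 H1299 cells, 2×10^3 per well, treated with drug 48 h. MTT (5 mg/ml stock) added for 4 h at 37° C, then SDS/DMF lysis overnight; absorbance at 570 nm gives viability, used alongside SEAP reporter readout to correct for cell number.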

[2] = tested on: CCRF-CEM; experiment: In vitro cytotoxicity, Development Therapeutics Program; settings: leukemia, 1.0×10^−5 M
Source text: (§1) From the in vitro experiments of the Development Therapeutics Program of the Cancer Research Institute, the United States, it was known that the synthetic heterocyclic anthraquinone derivatives of the present invention have different inhibition levels to the different cancer cell lines under the concentration of 1.0×10^−5 M. Please refer to Table 2, which is the result of in vitro cytotoxicity of 2,7-disubstituted anthraquinone derivatives of the present invention.

[3] = tested on: COLO 205; experiment: as above; settings: COLO 205, colon cancer; 1.0×10^−5 M
Source text: as §1

[4] = tested on: DU-145; experiment: as above; settings: DU-145, prostate cancer; 1.0×10^−5 M
Source text: as §1

[5] = tested on: EKVX; experiment: as above; settings: non-small cell lung cancer, 1.0×10^−5 M
Source text: as §1

[6] = tested on: HCC-2998; experiment: as above; settings: HCC-2998, colon cancer; 1.0×10^−5 M
Source text: as §1

[7] = tested on: HCT-15; experiment: as above; settings: HCT-15, colon cancer; 1.0×10^−5 M
Source text: as §1

[8] = tested on: HS 578T; experiment: as above; settings: breast cancer, 1.0×10^−5 M
Source text: as §1

[9] = tested on: KM12; experiment: as above; settings: KM12, colon cancer; 1.0×10^−5 M
Source text: as §1

[10] = tested on: LOX IMVI; experiment: as above; settings: melanoma, 1.0×10^−5 M
Source text: as §1

[11] = tested on: MALME-3M; experiment: as above; settings: melanoma, 1.0×10^−5 M
Source text: as §1

[12] = tested on: MDA-MB-435; experiment: as above; settings: MDA-MB-435, breast cancer; 1.0×10^−5 M
Source text: as §1

[13] = tested on: MOLT-4; experiment: as above; settings: MOLT-4, leukemia; 1.0×10^−5 M
Source text: as §1

[14] = tested on: NCl-H460; experiment: as above; settings: NCl-H460, non-small cell lung cancer; 1.0×10^−5 M
Source text: as §1

[15] = tested on: OVCAR-3; experiment: as above; settings: OVCAR-3, ovarian cancer; 1.0×10^−5 M
Source text: as §1

[16] = tested on: OVCAR-4; experiment: as above; settings: OVCAR-4, ovarian cancer; 1.0×10^−5 M
Source text: as §1

[17] = tested on: SF-539; experiment: as above; settings: SF-539, CNS cancer; 1.0×10^−5 M
Source text: as §1

[18] = tested on: SK-MEL-2; experiment: as above; settings: SK-MEL-2, melanoma; 1.0×10^−5 M
Source text: as §1

[19] = tested on: SNB-75; experiment: as above; settings: SNB-75, CNS cancer; 1.0×10^−5 M
Source text: as §1

[20] = tested on: SR; experiment: as above; settings: leukemia, 1.0×10^−5 M
Source text: as §1

[21] = tested on: UACC-62; experiment: as above; settings: UACC-62, melanoma; 1.0×10^−5 M
Source text: as §1

[22] = tested on: UO-31; experiment: as above; settings: UO-31, renal cancer; 1.0×10^−5 M
Source text: as §1

SMILES	Cellular growth rate (%) [2] [%]	Cellular growth rate (%) [3] [%]	Cellular growth rate (%) [4] [%]	Cellular growth rate (%) [5] [%]	Cellular growth rate (%) [6] [%]	Cellular growth rate (%) [7] [%]	Cellular growth rate (%) [8] [%]	Cellular growth rate (%) [9] [%]	Cellular growth rate (%) [10] [%]	Cellular growth rate (%) [11] [%]	Cellular growth rate (%) [12] [%]	Cellular growth rate (%) [13] [%]	Cellular growth rate (%) [14] [%]	Cellular growth rate (%) [15] [%]	Cellular growth rate (%) [16] [%]	Cellular growth rate (%) [17] [%]	Cellular growth rate (%) [18] [%]	Cellular growth rate (%) [19] [%]	Cellular growth rate (%) [20] [%]	Cellular growth rate (%) [21] [%]	other results
O=C1c2ccc(NC(=O)C3CC3)cc2C(=O)c2cc(NC(=O)C3CC3)ccc21 [Compound 32, 2,7-Bis(cyclopropanecarbonamido)anthraquinone]	90.67	91.92	98.83	94.31	132.37	86.35	118.90	92.67	90.27	91.76	97.35	94.29	89.03	103.35	97.54	93.24	16.85	89.23	1.69	81.00	cytotoxicity to H1299 cancer cells compared with mitoxantrone [1]: better than; Cellular growth rate (%) [22]: 95.55%
CN(C)CC(=O)Nc1ccc2c(c1)C(=O)c1cc(NC(=O)CN(C)C)ccc1C2=O [Compound 8, 2,7-Bis[2-(dimethylamino)acetamido]anthraquinone]	−13.21	−73.57	78.68	102.30	−73.97	16.26	−6.11	66.95	−52.34	96.21	68.36	29.12	5.01	43.63	45.70	−3.72	−30.35	76.12	−46.45	22.31	Cellular growth rate (%) [22]: −82.55%
O=C(Cc1ccccc1)Nc1ccc2c(c1)C(=O)c1cc(NC(=O)Cc3ccccc3)ccc1C2=O [Compound 30, 2,7-Bis(phenylacetamido)anthraquinone]																					MTT assay (cellular cytotoxicity) ([1]; low concentration (1 μM)): 107±7%
CC(=O)Nc1ccc2c(c1)C(=O)c1cc(NC(C)=O)ccc1C2=O [Compound 26, 2,7-Bis(acetamido)anthraquinone]	99.77	119.85	116.79	95.28	105.35	93.93	133.05	105.94	99.05	111.26	109.48	96.96	109.29	111.06	103.60	103.04	30.15	106.91	3.61	101.24	Cellular growth rate (%) [22]: 96.42%
O=C(CN1CCCCC1)Nc1ccc2c(c1)C(=O)c1cc(NC(=O)CN3CCCCC3)ccc1C2=O [Compound 7, 2,7-Bis[2-(piperidino)acetamido]anthraquinone]																					cytotoxicity to H1299 cancer cells compared with mitoxantrone [1]: better than
CCN(CC)CCC(=O)Nc1ccc2c(c1)C(=O)c1cc(NC(=O)CCN(CC)CC)ccc1C2=O [Compound 16, 2,7-Bis[3-(diethylamino)propionamido]anthraquinone]	−6.02	−49.69	10.20	59.99	−87.42	17.42	−23.77	21.82	3.39	62.39	71.07	5.42	9.50	10.39	24.92	37.15	−60.38	46.62	−0.39	44.45	Cellular growth rate (%) [22]: −31.53%
O=C(CCN1CCCC1)Nc1ccc2c(c1)C(=O)c1cc(NC(=O)CCN3CCCC3)ccc1C2=O [Compound 18, 2,7-Bis[3-(pyrrolidino)propionamido]anthraquinone]	3.74	−29.04	29.53	58.72	19.99	56.14	5.26	32.55	30.74	47.00	68.84	22.97	25.52	36.88	49.82	33.75	−45.21	77.47	19.75	42.72	Cellular growth rate (%) [22]: 5.27%
CCNCC(=O)Nc1ccc2c(c1)C(=O)c1cc(NC(=O)CNCC)ccc1C2=O [Compound 10, 2,7-Bis[2-(ethylamino)acetamido]anthraquinone]																					cytotoxicity to H1299 cancer cells compared with mitoxantrone [1]: better than
